Assay type in all cases: in vivo
One data set has as its system flies. In words: Flies: placed in sprayed petri dishes; dead or crippled flies counted. Conditions: after 24 hours, stated logarithmically (3 = 10^^-3 g/cm^3); for LD50 concentration based on insect-poison: I:P 100:0. The method, then: For each test, two petri dishes are sprayed with a solution of the active ingredient(s) in acetone or an aqueous spray-wash of the active ingredient(s). The dosage for each treated surface is 10^^-5 g/cm^2 = 1 kg/ha. After 2-3 hours, 10 flies aged 4-5 days are placed in each petri dish. After 1, 3 and 24 hours, the flies which are dead or crippled are counted.

A further data set deals with spider-mite eggs. In words: Spider-mites on sprayed leaf discs, assessment based on the mortality of the eggs (O). The following applies: stated logarithmically (3 = 10^^-3 g/cm^3), 8640 min; for LD50 concentration (O, mortality of the eggs; refers to the propynyl benzyl ether itself): I:P 0:100, ether alone. The method, then:
(§1) For each test, three beam leaf discs each with a 2-day infection and with 20-40 spider-mites and eggs are sprayed with a solution of the active ingredient(s) in acetone or an aqueous spray-wash of the active ingredient(s). The dosage for each treated surface is 10^^-5 g/cm^2 = 1 kg/ha. After 2 days, the discs are assessed for dead spider-mites and after 6 days for dead spider-mites and killed eggs. (Assessment scheme: from 0-5, where 0 = 0% and 5 = 100% mortality).
O = assessment based on the mortality of the eggs.

A further data set concerns black bean aphids. In words: Aphids: seedling of the field bean with black bean aphids sprayed; dead and surviving aphids counted. The following applies: stated logarithmically (3 = 10^^-3 g/cm^3); for LD50 concentration based on insect-poison: I:P 100:0; for LD50 concentration (refers to the propynyl benzyl ether itself): I:P 0:100, ether alone. The method, then:
For each test, one seedling of the field bean with ca 50-100 black bean aphids is sprayed with a solution of the active ingredient(s) in acetone or an aqueous spray-wash of the active ingredient(s). The seedlings are individually placed in tubes in water. After 24 and 48 hours, the dead and surviving aphids are counted and the activity calculated in %.

The test system of another data set is spider-mites. In words: Spider-mites on sprayed leaf discs, assessment based on the mortality of the spider-mites (W). Conditions: stated logarithmically (3 = 10^^-3 g/cm^3); for LD50 concentration based on insect-poison (W, mortality of the spider-mites): I:P 100:0; for LD50 concentration (W, mortality of the spider-mites; refers to the propynyl benzyl ether itself): I:P 0:100, ether alone. The method, then:
as §1
W = assessment based on the mortality of the spider-mites;

The mark [1] stands for this setting: Malathion group, I:P 0:100, ether alone.
The mark [2] stands for this setting: Methoxychlor group, I:P 0:100, ether alone.
Where [3] appears, read: Sevin group, I:P 0:100, ether alone.

`C=CCC1=C(C)C(OC(=O)C2C(C=C(C)C)C2(C)C)CC1=O` (mixture of isomers) [Allethrin, 2-allyl-4-hydroxy-3-methyl-2-cyclopenten-1-one esterified with a mixture of cis and trans 2,2-dimethyl-3-(2-methylpropenyl)-cyclopropanecarboxylic acid, reference compound]: the “LD50 concentration based on insect-poison” value with flies (Allethrin alone) was found to be 5.5; in the data set with black bean aphids (Allethrin alone), 5.0. The “LD50 concentration based on insect-poison (O, mortality of the eggs)” value in the data set on spider-mite eggs (Allethrin alone, I:P 100:0) is reported as < 3. The “LD50 concentration based on insect-poison (W, mortality of the spider-mites)” value in the data set on spider-mites (Allethrin alone) stood at 3.4.

For the compound `C#CCOCc1ccc2c(c1)OCO2` [A, 3,4-(methylenedioxy)-α-(2-propynyloxy)-toluene], the “LD50 concentration (refers to the propynyl benzyl ether itself)” value in the data set on flies (setting [1]) is recorded as > 3.5; in the data set with flies (setting [2]), > 3.5; with flies (setting [3]), 3.5; in the data set with black bean aphids (Allethrin group), 3.0; in the data set on black bean aphids (Methoxychlor group), 3.0. Further, the “LD50 concentration (W, mortality of the spider-mites; refers to the propynyl benzyl ether itself)” value in the data set on spider-mites (Sevin group) is < 2.

With `C#CCOCc1ccc(OC)c(OC)c1` [B, 3,4-dimethoxy-α-(2-propynyloxy)-toluene], the “LD50 concentration (refers to the propynyl benzyl ether itself)” value with flies (Allethrin group, I:P printed 0:10, ether alone) is recorded as 3.3; with flies (setting [1]) it was 3.3; with flies (setting [2]), 3.3; in the data set on flies (setting [3]), 3.5; in the data set on black bean aphids (Allethrin group), 3.0; in the data set with black bean aphids (Malathion group), 3.3. Further, in the data set on black bean aphids (Methoxychlor group), the “LD50 concentration (refers to the propynyl benzyl ether itself)” value turned out to be 3.3. In addition, the “LD50 concentration (O, mortality of the eggs; refers to the propynyl benzyl ether itself)” value in the data set on spider-mite eggs (Allethrin group), in the data set with spider-mite eggs (Methoxychlor group) and with spider-mite eggs (Sevin group) was 2.7 throughout. In addition, the “LD50 concentration (W, mortality of the spider-mites; refers to the propynyl benzyl ether itself)” value in the data set with spider-mites (Allethrin group), in the data set on spider-mites (Malathion group), in the data set with spider-mites (Methoxychlor group) and with spider-mites (Sevin group) was 3.0 each time.

On to `CCOC(=O)CC(SP(=S)(OC)OC)C(=O)OCC` (stereo not drawn) [Malathion, S-[1,2-bis-(carbethoxy)-ethyl]-0,0-dimethyl-dithiophosphate, reference compound], for which the “LD50 concentration based on insect-poison” value in the data set on flies (Malathion alone) and in the data set with black bean aphids (Malathion alone) was 5.1 throughout. For the same compound, in the data set on spider-mites (Malathion alone), the “LD50 concentration based on insect-poison (W, mortality of the spider-mites)” value is reported as < 4.

The record behind these values is patent publication US3946040A, “Propynyl benzyl ethers” (Hoffmann-La Roche Inc., priority 1973, dated 1976).
